Measurements as given in patent US8198441B2, “Process for the preparation of novel pyridopyrazines as mTOR kinase inhibitors” (AstraZeneca AB, priority 2008, dated 2012).
Read-outs that look alike come from different tables or passages of the source. One block for each molecule: values may come before it.

Tests used:
[1] = TIM-1 multi-compartmental in vitro model, bioaccessibility; assay type: in vitro ADME; details: for recovery at 10 mg/mL: TIM-1 multi-compartmental in vitro gastrointestinal model, read-out: Total recovery
Procedure: Bioaccessibility of a compound of Formula 5a in the form of a free base and a fumarate salt was assessed using a TIM-1 multi-compartmental in vitro model (TNO Quality of Life, The Netherlands).
Initial assessment of solutions and suspensions of the free base form at concentrations of 10 mg/mL and doses of 200 mg and 500 mg were performed using a standard protocol (lipid-fasted with starting gastric pH of 2 and a gastric half-time of 30 minutes).
A further study was performed with an increased initial gastric pH of 5 and a reduced gastric half-time of 20 min. In this study, 200 mg (free base equivalent) doses of 10 mg/mL suspensions of the free base and fumarate salt of the compound of Formula 5a were compared (see Table 4, FIG. 8).

[2] = Stability study of the fumarate salt in the solid state; assay type: physicochemical
Procedure: The stability of the fumarate salt of the compound of Formula 5a in the solid state was investigated for samples stored at 25° C./60% relative humidity (RH) in double lined polyethylene bags inside a fibreboard outer for long term stability testing. […] AH (ambient humidity) in double lined polyethylene bags inside fibreboard outers. Further stress testing was performed on exposed samples at 40° C./75% RH and at ambient temperature in a light chamber (exposed to a minimum of 1.2 million lux hours visible light and 200 watt-hours/m^2 UV light), as shown in Table 5.

recovery at 10 mg/mL ([1]; 200 mg (free base equivalent), pH 5, 200 mg (free base equivalent) of 10 mg/mL suspension, initial gastric pH 5, gastric half-time 20 min): 93% | recovery at 10 mg/mL ([1]; 200 mg, pH 2, 200 mg solution, 10 mg/mL, lipid-fasted, starting gastric pH 2, gastric half-time 30 min): 96.8% | recovery at 10 mg/mL ([1]; 200 mg, pH 2, 200 mg suspension, 10 mg/mL, lipid-fasted, starting gastric pH 2, gastric half-time 30 min): 97.6% | recovery at 10 mg/mL ([1]; 200 mg, pH 2, Table 4: 200 mg suspension, gastric pH 2): 97.6% | recovery at 10 mg/mL ([1]; 500 mg, pH 2, 500 mg solution, 10 mg/mL, lipid-fasted, starting gastric pH 2, gastric half-time 30 min): 93.6% | recovery at 10 mg/mL ([1]; 500 mg, pH 2, 500 mg suspension, 10 mg/mL, lipid-fasted, starting gastric pH 2, gastric half-time 30 min): 91.7%
Structure (SMILES): COc1ccc(-c2ccc3c(N4CCOC[C@@H]4C)nc(N4CCOC[C@@H]4C)nc3n2)cc1CO [Formula 5a free base, (5-{2,4-bis[(3S)-3-methylmorpholin-4-yl]pyrido[2,3-d]pyrimidin-7-yl}-2-methoxyphenyl)methanol]

Assay (water and solvent-free, % w/w) ([2]; 1 month, 40° C./75% RH exposed): 100.3 % w/w | Organic impurities: Largest single impurity (% w/w) ([2]; 1 month, 40° C./75% RH exposed): 0.16 % w/w | Total organic impurities (% w/w) ([2]; 1 month, 40° C./75% RH exposed): 0.36 % w/w | Water content (% w/w) ([2]; 1 month, 40° C./75% RH exposed): 5.0 % w/w | Assay (water and solvent-free, % w/w) ([2]; 3 months, 25° C./60% RH): 99.7 % w/w | Organic impurities: Largest single impurity (% w/w) ([2]; 3 months, 25° C./60% RH): 0.16 % w/w | Total organic impurities (% w/w) ([2]; 3 months, 25° C./60% RH): 0.31 % w/w | Water content (% w/w) ([2]; 3 months, 25° C./60% RH): 4.5 % w/w | Assay (water and solvent-free, % w/w) ([2]; 3 months, 40° C./75% RH): 99.3 % w/w | Organic impurities: Largest single impurity (% w/w) ([2]; 3 months, 40° C./75% RH): 0.16 % w/w | Total organic impurities (% w/w) ([2]; 3 months, 40° C./75% RH): 0.26 % w/w | Water content (% w/w) ([2]; 3 months, 40° C./75% RH): 5.6 % w/w | Assay (water and solvent-free, % w/w) ([2]; 3 months, 50° C.): 96.8 % w/w | Organic impurities: Largest single impurity (% w/w) ([2]; 3 months, 50° C.): 0.16 % w/w | Total organic impurities (% w/w) ([2]; 3 months, 50° C.): 0.44 % w/w | Water content (% w/w) ([2]; 3 months, 50° C.): 0.6 % w/w | degradation on storage ([2]; 25° C./60% RH, 40° C./75% RH and 50° C. AH, 3 months): no significant degradation | Assay (water and solvent-free, % w/w) ([2]; 10 days, light-exposed): 95.5 % w/w | Organic impurities: Largest single impurity (% w/w) ([2]; 10 days, light-exposed): 0.97 % w/w | Total organic impurities (% w/w) ([2]; 10 days, light-exposed): 2.28 % w/w | Water content (% w/w) ([2]; 10 days, light-exposed): 5.0 % w/w | Assay (water and solvent-free, % w/w) ([2]; Initial): 99.4 % w/w | Organic impurities: Largest single impurity (% w/w) ([2]; Initial): 0.16 % w/w | Total organic impurities (% w/w) ([2]; Initial): 0.31 % w/w | Water content (% w/w) ([2]; Initial): 3.4 % w/w | thermal degradation ([2]; stored at 50° C.): some evidence of thermal degradation | Total recovery ([1]; 200 mg (free base equivalent) of 10 mg/mL suspension, initial gastric pH 5, gastric half-time 20 min): 95.12
Structure (SMILES): COc1ccc(-c2ccc3c(N4CCOC[C@@H]4C)nc(N4CCOC[C@@H]4C)nc3n2)cc1CO.O=C(O)/C=C/C(=O)O [Formula 5a fumarate salt, (5-{2,4-Bis[(3S)-3-methylmorpholin-4-yl]pyrido[2,3-d]pyrimidin-7-yl}-2-methoxyphenyl)methanol Fumarate salt]
effect of exposure to light under stress conditions ([2]; light chamber, minimum 1.2 million lux hours visible and 200 watt-hours/m2 UV): darkened on exposed surfaces and a loss of assay and corresponding increase in organic impurities
